From US12459974B2, “Bicyclic peptide ligands specific for Nectin-4” (priority 2018, dated 2025)
*1 amine or outer side, *2 acyl side, *3 side chain or, on linkers, in order; H or OH if unused. Where a SMILES comes first, the peptide text is derived from it. Bridges are numbered along the chain shown (N, C = ends). Roman numbers before positions name the chains, in order. [ ]: non-standard residue; d: D form. The star is where a group is joined. TATA = O=C(CC[*:1])N1CN(C(=O)CC[*:2])CN(C(=O)CC[*:3])C1; Dolaproine = CO[C@@H]([C@@H]1CCCN1)[C@@H](C)C(=O)O; Dil = CC[C@H](C)[C@H](NC)[C@@H](CC(=O)O)OC; X3 = O=C(CCCC(=O)[*:2])NCCC(=O)[*:1]; PABC = O=C(OCc1ccc(N[*:1])cc1)[*:2]; X4 = C[C@@H](N*)[C@@H](O)c1ccccc1; hArg = N=C(N)NCCCC[C@H](N)C(=O)O; Cit = NC(=O)NCCC[C@H](N)C(=O)O; NMeV = CN[C@H](C(=O)O)C(C)C; Sar = CNCC(=O)O

Assays:
human Nectin-4 [1] = biological target: T1, human Nectin-4 (Homo sapiens, UniProt Q96NY8); test: Nectin-4 competition binding assay (fluorescence polarisation); conditions: competition with fluorescent peptide SEQ ID NO: 217; read-out: Ki
T1 sequence (Q96NY8 32-510): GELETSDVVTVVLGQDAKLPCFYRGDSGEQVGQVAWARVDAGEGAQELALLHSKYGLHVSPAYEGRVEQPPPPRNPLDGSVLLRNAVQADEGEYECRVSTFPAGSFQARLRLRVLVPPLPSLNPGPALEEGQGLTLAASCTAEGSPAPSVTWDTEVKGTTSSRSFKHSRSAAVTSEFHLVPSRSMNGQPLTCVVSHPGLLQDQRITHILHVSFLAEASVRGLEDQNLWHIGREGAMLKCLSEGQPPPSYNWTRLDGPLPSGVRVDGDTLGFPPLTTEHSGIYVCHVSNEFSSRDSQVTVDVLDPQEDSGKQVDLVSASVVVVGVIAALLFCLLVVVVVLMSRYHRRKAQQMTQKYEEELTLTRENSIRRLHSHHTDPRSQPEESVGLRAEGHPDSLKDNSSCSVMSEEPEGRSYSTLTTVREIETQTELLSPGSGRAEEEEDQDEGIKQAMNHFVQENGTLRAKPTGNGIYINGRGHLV
Summary of the method: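 Ki derived by cubic-equation fit of mP data, with tracer peptide concentration, its Kd and Nectin-4 level as fixed inputs. Competition set up by adding 2-fold peptide dilutions (≤5% DMSO), then Nectin-4, then fluorescent peptide; polarisation measured as for direct binding.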

human Nectin-4 [2] = biological target: T2, human Nectin-4 (Homo sapiens, UniProt Q96NY8); test: Nectin-4 Biacore SPR binding assay
T2 sequence (Q96NY8 32-349): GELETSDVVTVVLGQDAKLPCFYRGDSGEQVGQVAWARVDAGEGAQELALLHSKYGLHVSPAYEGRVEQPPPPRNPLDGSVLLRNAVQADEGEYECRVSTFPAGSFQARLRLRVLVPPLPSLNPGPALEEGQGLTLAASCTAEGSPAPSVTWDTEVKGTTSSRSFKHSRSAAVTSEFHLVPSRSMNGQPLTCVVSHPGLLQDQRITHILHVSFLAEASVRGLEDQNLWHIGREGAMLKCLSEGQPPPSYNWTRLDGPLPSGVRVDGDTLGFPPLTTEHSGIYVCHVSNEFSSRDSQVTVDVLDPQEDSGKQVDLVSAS

human Nectin-4 [3] = biological target: T1, human Nectin-4; test: Nectin-4 direct binding assay (fluorescence polarisation); conditions: fluorescently tagged peptide, TATA scaffold
Experimental: Affinity of the peptides of the invention for human Nectin-4 (Ki) was determined using a fluorescence polarisation assay, in accordance with the methods disclosed in WO 2016/067035. Peptides of the invention with a fluorescent tag (either fluorescein, SIGMA or Alexa Fluor488™, Fisher Scientific) were diluted to 2.5 nM in PBS with 0.01% tween 20 or 50 mM HEPES with 100 mM NaCl and 0.01% tween pH 7.4 (both referred to as assay buffer). This was combined with a titration of protein in the same assay buffer as the peptide to give 1 nM peptide in a total volume of 25 μL in a black walled and bottomed low bind low volume 384 well plates, typically 5 μL assay buffer, 10 μL protein then 10 μL fluorescent peptide. […] Measurements were conducted on a BMG PHERAstar FS equipped with an “FP 485 520 520” optic module which excites at 485 nm and detects parallel and perpendicular emission at 520 nm. The PHERAstar FS was set at 25° C. with 200 flashes per well and a positioning delay of 0.1 second, with each well measured at 5 to 10 minute intervals for 60 minutes. The gain used for analysis was determined for each tracer at the end of the 60 minutes where there was no protein in the well. Data was analysed using Systat Sigmaplot version 12.0. mP values were fit to a user defined quadratic equation to generate a Kd value: f=ymin+(ymax−ymin)/Lig*((x+Lig+Kd)/2-sqrt((((x+Lig+Kd)/2)^2)−(Lig*x))). […]

HT-1376 xenograft = test: Example 2: in vivo efficacy in HT-1376 xenograft (bladder cancer model) in CB17-SCID mice; conditions: 1 mg/kg
Experimental: The major endpoint was to see if the tumor growth could be delayed or mice could be cured. Tumor volume was measured three times weekly in two dimensions using a caliper, and the volume was expressed in mm^3 using the formula: V=0.5 a×b^2 where a and b are the long and short diameters of the tumor, respectively. The tumor size was then used for calculations of T/C value. The T/C value (in percent) is an indication of antitumor effectiveness; T and C are the mean volumes of the treated and control groups, respectively, on a given day. TGI was calculated for each group using the formula: TGI (%)=[1−(Ti−T0)/(Vi−V0)]×100; Ti is the average tumor volume of a treatment group on a given day, T0 is the average tumor volume of the treatment group on the day of treatment start, Vi is the average tumor volume of the vehicle control group on the same day with Ti, and V0 is the average tumor volume of the vehicle group on the day of treatment start.
A one-way ANOVA was performed to compare tumor volume among groups, and when a significant F-statistics (a ratio of treatment variance to the error variance) was obtained, comparisons between groups were carried out with Games-Howell test. […] P<0.05 was considered to be statistically significant.
• Species: Mus Musculus • Strain: CB17-SCID • Age: 6-8 weeks • Sex: female • Body weight: 18-22 g • Number of animals: 21-41 mice plus spare • Animal supplier: Shanghai LC Laboratory Animal Co., LTD.
The HT-1376 tumor cells were maintained in vitro as a monolayer culture in EMEM medium supplemented with 10% heat inactivated fetal bovine serum at 37° C. in an atmosphere of 5% CO2 in air. The tumor cells were routinely subcultured twice weekly by trypsin-EDTA treatment.
Each mouse was inoculated subcutaneously at the right flank with HT-1376 tumor cells (5×10^6) in 0.2 ml of PBS with matrigel (1:1) for tumor development. Animals were randomized when the average tumor volume reached 153-164 mm^3.
Tumor growth inhibition rate for Test articles in the HT-1376 xenograft model was calculated based on tumor volume measurements at day 21 after the start of treatment.

| Ki (human Nectin-4 [3]) [µM] | SMILES | Ki (human Nectin-4 [1]) [µM] | Kd (human Nectin-4 [2]) [µM] | bodyweight (in words) (HT-1376 xenograft) |
| --- | --- | --- | --- | --- |
| – | CC[C@H](C)[C@@H]1NC(=O)[C@@H]2CCCN2C(=O)[C@H](Cc2c[nH]c3ccccc23)NC(=O)[C@H](CO)NC(=O)[C@H](Cc2c[nH]c3ccccc23)NC(=O)[C@H](CC(N)=O)NC(=O)[C@H](CCCCN)NC(=O)[C@H](CCSC)NC(=O)[C@@H]2CSCCC(=O)N3CN(CN(C3)C(=O)CCSC[C@H](NC(=O)[C@H](C)N)C(=O)N3CCC[C@H]3C(=O)N[C@@H](Cc3ccccc3)C(=O)NCC(=O)N2)C(=O)CCSC[C@@H](C(=O)N[C@@H](C)C(N)=O)NC(=O)[C@H](Cc2c[nH]c3ccccc23)NC1=O [BCY428, A-(SEQ ID NO: 1)-A] | 0.061 | 0.334 | – |
| 0.269 | CC[C@H](C)[C@@H]1NC(=O)[C@H](CCCNC(=N)N)NC(=O)[C@H](CC(=O)O)NC(=O)[C@@H]2CSCCC(=O)N3CN(CN(C3)C(=O)CCSC[C@@H](C(=O)N[C@@H](C)C(N)=O)NC1=O)C(=O)CCSC[C@H](NC(=O)[C@H](Cc1c[nH]c3ccccc13)NC(=O)[C@H](CC(=O)O)NC(=O)[C@@H](N)C(C)C)C(=O)N[C@@H](C)C(=O)N1CCC[C@H]1C(=O)N[C@@H](CC(C)C)C(=O)N[C@@H](CC(=O)O)C(=O)N[C@@H](CC(=O)O)C(=O)N[C@@H](Cc1ccc(O)cc1)C(=O)N[C@@H](Cc1c[nH]c3ccccc13)C(=O)N2 [BCY462, VDW-(SEQ ID NO: 33)-A] (H-VDWCAPLDDYWCDRICA-NH2; linker 4-12-16 via TATA; N-terminus and C-terminus assumed) | – | – | – |
| 0.072 | CC[C@H](C)[C@@H]1NC(=O)[C@H](CCCNC(=N)N)NC(=O)[C@H](CC(N)=O)NC(=O)[C@@H]2CSCCC(=O)N3CN(CN(C3)C(=O)CCSC[C@@H](C(=O)N[C@@H](C)C(N)=O)NC1=O)C(=O)CCSC[C@H](NC(=O)[C@H](Cc1c[nH]c3ccccc13)NC(=O)[C@H](CCCCN)NC(=O)[C@@H](N)CCC(N)=O)C(=O)N[C@@H](C)C(=O)N1CCC[C@H]1C(=O)N[C@@H](CC(C)C)C(=O)N[C@@H](CO)C(=O)N[C@@H](CC(=O)O)C(=O)N[C@@H](Cc1ccc(O)cc1)C(=O)N[C@@H](Cc1c[nH]c3ccccc13)C(=O)N2 [BCY3400, QKW-(SEQ ID NO: 34)-A] (H-QKWCAPLSDYWCNRICA-NH2; linker 4-12-16 via TATA; N-terminus and C-terminus assumed) | 0.047 | – | – |
| – | CC[C@H](C)[C@@H]1NC(=O)[C@@H]2CCCN2C(=O)[C@H](Cc2c[nH]c3ccccc23)NC(=O)[C@H](CO)NC(=O)[C@H](Cc2c[nH]c3ccccc23)NC(=O)[C@H](CC(N)=O)NC(=O)[C@H](CCCCN)NC(=O)[C@H](CCSC)NC(=O)[C@@H]2CSCCC(=O)N3CN(CN(C3)C(=O)CCSC[C@H](NC(C)=O)C(=O)N3CCC[C@H]3C(=O)N[C@@H](Cc3ccccc3)C(=O)NCC(=O)N2)C(=O)CCSC[C@@H](C(N)=O)NC(=O)[C@H](Cc2c[nH]c3ccccc23)NC1=O [BCY7390, Ac-(SEQ ID NO: 1)] (Ac-CPFGCMKNWSWPIWC-NH2; linker 1-5-15 via TATA; C-terminus assumed) | 0.0171 | 0.0403 | – |
| – | CC[C@H](C)[C@@H]1NC(=O)[C@@H]2CCCN2C(=O)[C@H](Cc2c[nH]c3ccccc23)NC(=O)[C@H](CO)NC(=O)[C@H](Cc2c[nH]c3ccccc23)NC(=O)[C@H](CC(N)=O)NC(=O)[C@H](CCCCN)NC(=O)[C@H](CCSC)NC(=O)[C@@H]2CSCCC(=O)N3CN(CN(C3)C(=O)CCSC[C@H](NC(C)=O)C(=O)N3CCC[C@H]3C(=O)N[C@@H](Cc3ccccc3)C(=O)NCC(=O)N2)C(=O)CCSC[C@@H](C(=O)N[C@H](C(=O)N[C@@H](CC(N)=O)C(=O)N[C@@H](CCCCN)C(N)=O)[C@@H](C)O)NC(=O)[C@H](Cc2c[nH]c3ccccc23)NC1=O [BCY7391, Ac-(SEQ ID NO: 1)-TNK] (Ac-CPFGCMKNWSWPIWCTNK-NH2; linker 1-5-15 via TATA; C-terminus assumed) | 0.0133 | 0.0598 | – |
| – | CC(=O)N[C@H]1CSCCC(=O)N2CN3CN(C2)C(=O)CCSC[C@H](NC(=O)[C@H](CC(=O)O)NC(=O)[C@H](Cc2ccc(O)cc2)NC(=O)[C@H](CO)NC(=O)[C@H]([C@@H](C)O)NC(=O)[C@H]([C@@H](C)O)NC(=O)[C@H](C(C)C)NC1=O)C(=O)N[C@@H](Cc1c[nH]c2ccccc12)C(=O)N[C@@H](C(C)C)C(=O)N[C@@H]([C@@H](C)O)C(=O)N[C@@H](CC(C)C)C(=O)NCC(=O)N[C@@H](Cc1c[nH]cn1)C(=O)N[C@H](C(=O)N[C@@H](CO)C(=O)N[C@@H](CCCNC(=N)N)C(=O)N[C@@H](Cc1ccccc1)C(N)=O)CSCCC3=O [BCY7393, Ac-(SEQ ID NO: 37)-SRF] (Ac-CVTTSYDCWVTLGHCSRF-NH2; linker 1-8-15 via TATA; C-terminus assumed) | 0.232 | 1.38 | – |
| – | CC[C@H](C)[C@@H]([C@@H](CC(=O)N1CCC[C@H]1[C@H](OC)[C@@H](C)C(=O)N[C@H](C)[C@@H](O)c1ccccc1)OC)N(C)C(=O)[C@@H](NC(=O)[C@H](C(C)C)N(C)C(=O)OCc1ccc(NC(=O)[C@H](CCCNC(N)=O)NC(=O)[C@@H](NC(=O)CCCC(=O)NCCC(=O)N(C)CC(=O)N(C)CC(=O)N(C)CC(=O)N(C)CC(=O)N(C)CC(=O)N(C)CC(=O)N(C)CC(=O)N(C)CC(=O)N(C)CC(=O)N(C)CC(=O)N[C@H]2CSCCC(=O)N3CN4CN(C3)C(=O)CCSC[C@H](NC(=O)[C@@H](CC(=O)O)NC(=O)[C@H](Cc3ccccc3)NC(=O)[C@@H]3CCCN3C2=O)C(=O)N[C@@H](CCSC)C(=O)N[C@@H](CCCCNC(=N)N)C(=O)N[C@@H](CC(N)=O)C(=O)N[C@@H](Cc2c[nH]c3ccccc23)C(=O)N[C@@H](CO)C(=O)N[C@@H]([C@@H](C)O)C(=O)N2CCC[C@H]2C(=O)N[C@@H]([C@@H](C)CC)C(=O)N[C@@H](Cc2c[nH]c3ccccc23)C(=O)N[C@H](C(N)=O)CSCCC4=O)C(C)C)cc1)C(C)C [BCY7825, MMAE-PABC-Cit-Val-Glutaryl-BCY7814] (I: [Sar][Sar][Sar][Sar][Sar][Sar][Sar][Sar][Sar][Sar]CPF[dD]CM[hArg]NWSTPIWC-NH2 / II: V[Cit][PABC][NMeV]V[Dil][Dolaproine]-X4; linker I:11-I:15-I:25 via TATA; linker I:N-II:N via X3) | – | 0.0116 | maintained the bodyweight well |
| – | CC(=O)N[C@H]1CSCCC(=O)N2CN3CN(C2)C(=O)CCSC[C@H](NC(=O)[C@@H](CC(=O)O)NC(=O)[C@H](Cc2ccccc2)NC(=O)[C@@H]2CCCN2C1=O)C(=O)N[C@@H](CC(C)C)C(=O)N[C@@H](CCCCNC(=N)N)C(=O)N[C@@H](CC(N)=O)C(=O)N[C@@H](Cc1c[nH]c2ccccc12)C(=O)N[C@@H](CO)C(=O)N[C@@H]([C@@H](C)O)C(=O)N1CCC[C@H]1C(=O)N1CCC[C@H]1C(=O)N[C@@H](Cc1c[nH]c2ccccc12)C(=O)N[C@H](C(N)=O)CSCCC3=O [BCY8038, Ac-(SEQ ID NO: 160)] (Ac-CPF[dD]CL[hArg]NWSTPPWC-NH2; linker 1-5-15 via TATA; C-terminus assumed) | 0.008 | 0.0445 | – |
